# Experimental data from PMC8538066, “Purification and Identification of Novel Xanthine Oxidase Inhibitory Peptides Derived from Round Scad (Decapterus maruadsi) Protein Hydrolysates” (Marine Drugs, 2021).
# Marks after values point to notes of the source that are not given here.
# Assays:
# xanthine oxidase (XO) [1] = biological target: T1, xanthine oxidase (XO) (Bos taurus, UniProt P80457); assay: XO inhibitory activity assay (rate of uric acid formation, absorbance 290 nm); assay type: biochemical; conditions: peptide 5 mM; XO 0.05 U/mL, pre-incubation 37 °C 30 min, xanthine 0.42 mM, 20 mM sodium carbonate buffer pH 7.5, 290 nm; each sample tested three times
# T1 construct: purchased Sigma Chemical Co. (St. Louis, MO, USA)
# Method: The XO inhibitory activity was measured by quantifying the rate of uric acid produced in the enzyme-catalyzed reaction. All samples were dissolved in 20 mM sodium carbonate buffer at pH 7.5. […] During the reaction, the dynamic changes of the absorbance of the sample were continuously recorded at 290 nm. Each sample was tested three times. The XO inhibitory activity was calculated using the following formula:Inhibition (%) = (V1 − V2)/V1 × 100%(1) where V1 is the initial enzymatic reaction rate of the blank group, V2 is the initial enzymatic reaction rate of sample group.
# xanthine oxidase (XO) [2] = biological target: T1, xanthine oxidase (XO); assay: Reversibility and type of XO inhibition (v vs enzyme plots; Lineweaver-Burk plots); assay type: biochemical; conditions: for type of XO inhibition: Lineweaver-Burk, peptide 0 and 5 mM, XO 0.05 U/mL, xanthine 0-0.4 mM, Km increased, Vmax decreased; for reversibility of XO inhibition: inhibitor 0, 5, 10 and 20 mM, XO 0 to 0.1 U/mL, xanthine 0.4 mM, 37 °C 30 min, pH 7.5
# Method: The plots of ν (ΔOD290nm/min) versus the XO (U/mL) at different concentrations of the inhibitors (peptides) were constructed to determine the reversibility of inhibitory behavior on XO [29]. All samples were dissolved in 20 mM sodium carbonate buffer (pH 7.5). Inhibitor solution (0, 5, 10 and 20 mM) and XO solution (from 0 to 0.1 U/mL) were mixed and incubated at 37 °C for 30 min, and the concentration of the substrate xanthine was kept constant at 0.4 mM. The absorbance at 290 nm was then determined. ν is the initial enzymatic reaction rate of the reaction, which was investigated using the same method for the XO inhibitory activity assay.
# The type of the inhibition of XO activity by the inhibitors (peptides) was investigated using Lineweaver and Burk kinetic analysis. It was performed via evaluating the initial rate of reaction in the presence and absence of inhibitors at different xanthine concentration. Briefly, the peptide (0 and 5 mM) and XO (0.05 U/mL) were mixed and incubated in the buffer (20 mM sodium carbonate buffer, pH 7.5) for 30 min at 37 °C. Subsequently, different xanthine concentrations (0, 0.05, 0.1, 0.2 and 0.4 mM) were successively added into the solutions. Then, the dynamic changes of the absorbance at 290 nm were recorded, and ν was calculated using the same method above. Km and Vmax values, as corresponding kinetic parameters, were obtained from the Lineweaver and Burk double reciprocal plots.
# xanthine oxidase (XO) [3] = biological target: T1, xanthine oxidase (XO); assay: Fluorescence quenching of XO (Stern-Volmer analysis); assay type: binding; conditions: for Kq (quenching rate constant) / Ksv (Stern-Volmer quenching constant): T 298 K; for Kq (quenching rate constant): Kq = Ksv/τ0, τ0 approximately 10^−8 s; for Ksv (Stern-Volmer quenching constant): XO 0.05 U/mL, peptide 0 to 20.0 × 10^−4 M, excitation 280 nm; for fluorescence quenching mechanism of XO: from Kq versus the collisional quenching threshold
# Method: Fluorescence spectra were measured on an F-7000 Spectrofluorimeter (Hitachi Ltd., Ibaraki, Japan) with a 1.0 cm quartz cell and a thermostatic bath. Briefly, 2 mL XO (0.05 U/mL) was titrated by continuous addition of peptides solution (to final concentrations ranging from 0 to 20.0 × 10^−4 M). Then, the obtained mixture was properly mixed and equilibrated for 5 min. The slit widths for excitation and emission were set to 2.5 nm. The fluorescence emission spectra were then measured in the emission wavelength range from 300 to 500 nm, under 280 nm excitation wavelengths. The following Stern-Volmer equation was used to analyze the fluorescence quenching:F0/F = 1 + Ksv [C] = 1 + Kq τ0 [C](3) where F0 and F represent the steady-state fluorescence intensities in the absence and presence of quencher, respectively. Ksv is the Stern-Volmer quenching constant. [C] is the quencher concentration. Kq is the quenching rate constant of biomolecule. Kq = Ksv/τ0, τ0 is the average lifetime of biomolecule in the absence of quencher and its value is approximately 10^−8 s. Ksv used to be estimated by linear regression plot slope of F0/F versus.
# Xanthine oxidase [4] = biological target: Xanthine oxidase (UniProt P80457); assay: other fluorescence titration; quenching of the intrinsic fluorescence of XO (2 mL, 0.05 U/mL) titrated with peptide to 0-20.0 x 10^-4 M; equilibrated 5 min; excitation 280 nm, emission 300-500 nm; 298 K; Stern-Volmer analysis
# Xanthine oxidase [5] = biological target: Xanthine oxidase (UniProt P80457)
# Chain of Xanthine oxidase (P80457 2-1332): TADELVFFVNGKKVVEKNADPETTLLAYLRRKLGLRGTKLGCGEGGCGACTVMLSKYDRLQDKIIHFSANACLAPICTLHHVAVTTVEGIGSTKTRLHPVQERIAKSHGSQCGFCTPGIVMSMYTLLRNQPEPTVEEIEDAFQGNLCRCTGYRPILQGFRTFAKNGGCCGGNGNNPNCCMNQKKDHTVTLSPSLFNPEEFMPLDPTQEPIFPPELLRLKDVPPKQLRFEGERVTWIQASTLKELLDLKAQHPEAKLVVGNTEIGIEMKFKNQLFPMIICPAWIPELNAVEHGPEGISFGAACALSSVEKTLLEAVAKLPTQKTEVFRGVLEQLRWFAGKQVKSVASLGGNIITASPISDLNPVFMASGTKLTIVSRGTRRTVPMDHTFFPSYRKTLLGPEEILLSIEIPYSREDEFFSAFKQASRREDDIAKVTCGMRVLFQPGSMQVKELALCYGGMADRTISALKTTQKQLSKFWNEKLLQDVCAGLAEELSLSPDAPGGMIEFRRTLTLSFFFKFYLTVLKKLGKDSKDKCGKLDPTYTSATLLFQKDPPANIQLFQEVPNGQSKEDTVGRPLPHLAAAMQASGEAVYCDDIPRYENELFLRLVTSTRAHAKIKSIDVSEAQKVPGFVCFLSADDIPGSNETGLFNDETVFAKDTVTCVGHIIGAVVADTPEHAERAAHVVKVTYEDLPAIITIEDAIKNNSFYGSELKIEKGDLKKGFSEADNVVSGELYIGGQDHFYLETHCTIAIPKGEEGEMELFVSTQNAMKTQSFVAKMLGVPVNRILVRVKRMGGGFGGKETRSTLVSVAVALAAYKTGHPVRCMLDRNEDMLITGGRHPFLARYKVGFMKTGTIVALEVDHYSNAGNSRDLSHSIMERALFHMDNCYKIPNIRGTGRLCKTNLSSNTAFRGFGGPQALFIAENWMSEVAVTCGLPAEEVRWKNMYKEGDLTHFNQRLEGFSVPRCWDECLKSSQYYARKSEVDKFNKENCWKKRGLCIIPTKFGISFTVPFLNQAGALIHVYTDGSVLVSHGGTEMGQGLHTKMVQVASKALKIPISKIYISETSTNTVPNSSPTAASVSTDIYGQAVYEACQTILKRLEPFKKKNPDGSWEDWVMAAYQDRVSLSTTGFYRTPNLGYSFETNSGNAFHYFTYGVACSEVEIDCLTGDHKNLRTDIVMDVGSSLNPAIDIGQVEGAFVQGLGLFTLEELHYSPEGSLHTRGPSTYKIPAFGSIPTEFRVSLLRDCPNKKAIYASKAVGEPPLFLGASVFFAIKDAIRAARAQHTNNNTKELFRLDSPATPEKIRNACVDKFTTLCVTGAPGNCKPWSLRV
# T1 sequence (P80457 whole entry): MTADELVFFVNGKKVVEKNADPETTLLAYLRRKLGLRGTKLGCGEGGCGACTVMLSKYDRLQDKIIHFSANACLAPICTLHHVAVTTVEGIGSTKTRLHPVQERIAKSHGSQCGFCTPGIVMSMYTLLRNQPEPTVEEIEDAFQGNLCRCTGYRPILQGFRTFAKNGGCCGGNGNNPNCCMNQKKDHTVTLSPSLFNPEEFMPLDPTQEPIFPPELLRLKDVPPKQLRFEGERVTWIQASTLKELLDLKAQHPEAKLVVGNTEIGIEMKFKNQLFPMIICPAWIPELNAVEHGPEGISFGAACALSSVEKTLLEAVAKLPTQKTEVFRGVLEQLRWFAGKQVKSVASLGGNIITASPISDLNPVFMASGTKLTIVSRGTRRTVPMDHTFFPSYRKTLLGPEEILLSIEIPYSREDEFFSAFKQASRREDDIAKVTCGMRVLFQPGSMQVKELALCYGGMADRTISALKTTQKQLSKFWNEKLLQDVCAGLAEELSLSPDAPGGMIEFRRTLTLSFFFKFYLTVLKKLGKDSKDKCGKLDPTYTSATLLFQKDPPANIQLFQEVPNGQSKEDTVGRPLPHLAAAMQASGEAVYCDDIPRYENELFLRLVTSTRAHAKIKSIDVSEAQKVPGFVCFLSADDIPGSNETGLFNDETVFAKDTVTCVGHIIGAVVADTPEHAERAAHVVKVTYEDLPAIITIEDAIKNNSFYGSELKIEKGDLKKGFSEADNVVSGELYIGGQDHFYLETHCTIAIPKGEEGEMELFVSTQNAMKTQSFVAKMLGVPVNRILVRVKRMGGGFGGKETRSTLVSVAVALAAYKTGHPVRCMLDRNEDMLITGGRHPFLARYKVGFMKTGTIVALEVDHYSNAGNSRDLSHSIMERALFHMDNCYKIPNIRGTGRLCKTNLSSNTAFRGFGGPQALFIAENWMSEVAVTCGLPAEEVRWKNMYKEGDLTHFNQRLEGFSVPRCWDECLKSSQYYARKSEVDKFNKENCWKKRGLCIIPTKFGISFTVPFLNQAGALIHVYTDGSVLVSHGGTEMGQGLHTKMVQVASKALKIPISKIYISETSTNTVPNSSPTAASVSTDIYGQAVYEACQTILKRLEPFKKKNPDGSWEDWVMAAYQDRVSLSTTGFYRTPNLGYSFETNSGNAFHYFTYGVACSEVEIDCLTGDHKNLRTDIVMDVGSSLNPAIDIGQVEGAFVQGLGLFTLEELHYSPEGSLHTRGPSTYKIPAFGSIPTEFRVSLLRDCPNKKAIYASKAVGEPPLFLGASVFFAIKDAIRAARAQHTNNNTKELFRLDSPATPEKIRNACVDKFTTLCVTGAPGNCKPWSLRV
molecule,measurement,setting,value
"FPFP [tetrapeptide identified from round scad hydrolysate fraction F2, chemically synthesized]",XO Inhibitory Activity (%),xanthine oxidase (XO) [1],20.09 ± 2.41 ^a %
same,type of XO inhibition,xanthine oxidase (XO) [2],mixed inhibitor
same,reversibility of XO inhibition,xanthine oxidase (XO) [2],reversible
same,Kq (quenching rate constant),xanthine oxidase (XO) [3],5.608e+11 M⁻¹ s⁻¹
same,Ksv (Stern-Volmer quenching constant),xanthine oxidase (XO) [3],5608 M⁻¹
same,fluorescence quenching mechanism of XO,xanthine oxidase (XO) [3],static
"FPSV [tetrapeptide identified from round scad hydrolysate fraction F2, chemically synthesized]",XO Inhibitory Activity (%),xanthine oxidase (XO) [1],22.61 ± 1.81 ^a %
same,type of XO inhibition,xanthine oxidase (XO) [2],mixed inhibitor
same,reversibility of XO inhibition,xanthine oxidase (XO) [2],reversible
same,Kq (quenching rate constant),xanthine oxidase (XO) [3],5.42e+10 M⁻¹ s⁻¹
same,Ksv (Stern-Volmer quenching constant),xanthine oxidase (XO) [3],542 M⁻¹
same,fluorescence quenching mechanism of XO,xanthine oxidase (XO) [3],static
"KGFP [tetrapeptide identified from round scad hydrolysate fraction F2, chemically synthesized]",XO Inhibitory Activity (%),xanthine oxidase (XO) [1],5.43 ± 0.20 ^c %
"WPDGR [pentapeptide identified from round scad hydrolysate fraction F2, chemically synthesized]",XO Inhibitory Activity (%),xanthine oxidase (XO) [1],16.21 ± 0.78 ^b %
FPFP,Kq (quenching rate constant),Xanthine oxidase [4],5.61e+11 M⁻¹ s⁻¹
same,Ksv (Stern-Volmer quenching constant),Xanthine oxidase [4],5610 M⁻¹
same,"XO inhibitory activity (%) at 5 mM peptide (rate of uric acid formation, absorbance at 290 nm)",Xanthine oxidase [5],20.1%
KGFP,"XO inhibitory activity (%) at 5 mM peptide (rate of uric acid formation, absorbance at 290 nm)",Xanthine oxidase [5],5.43%
WPDGR,"XO inhibitory activity (%) at 5 mM peptide (rate of uric acid formation, absorbance at 290 nm)",Xanthine oxidase [5],16.2%
FPSV,Kq (quenching rate constant),Xanthine oxidase [4],5.42e+10 M⁻¹ s⁻¹
same,Ksv (Stern-Volmer quenching constant),Xanthine oxidase [4],542 M⁻¹
same,"XO inhibitory activity (%) at 5 mM peptide (rate of uric acid formation, absorbance at 290 nm)",Xanthine oxidase [5],22.6%
